System: 786-0 complex spheroids with HUVEC/MSC, growth % test/control
Assay: Anticancer human tumor 786-0 cell line growth inhibition [AhR];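 also: compound exposure lasted seven days before the read-out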
Conditions: for IC50: curve of first compound; for viability, T/C: stronger effect = lower value
Summary of the method: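 Agents were dosed in half-log steps down from roughly clinical Cmax, or from 10 microM where Cmax was unknown, alone and with AhR antagonists. Read-out: percent test/control growth of tumor spheroids containing HUVEC and MSC stromal cells.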

[1] = second compound 0.1 µM, first compound 0.0316 µM
[2] = second compound 0.1 µM, first compound 0.1 µM
[3] = second compound 0.1 µM, first compound 0.316 µM
[4] = second compound 0.1 µM, first compound 1 µM
[5] = second compound 0.1 µM, first compound 3.16 µM
[6] = second compound 0.1 µM, first compound 10 µM
[7] = second compound 0.316 µM, first compound 0.0316 µM
[8] = second compound 0.316 µM, first compound 0.1 µM
[9] = second compound 0.316 µM, first compound 0.316 µM
[10] = second compound 0.316 µM, first compound 1 µM
[11] = second compound 0.316 µM, first compound 3.16 µM
[12] = second compound 0.316 µM, first compound 10 µM
[13] = second compound 1 µM, first compound 0.0316 µM
[14] = second compound 1 µM, first compound 0.1 µM
[15] = second compound 1 µM, first compound 0.316 µM
[16] = second compound 1 µM, first compound 1 µM
[17] = second compound 1 µM, first compound 3.16 µM
[18] = second compound 1 µM, first compound 10 µM
[19] = second compound 3.16 µM, first compound 0.0316 µM
[20] = second compound 3.16 µM, first compound 0.1 µM
[21] = second compound 3.16 µM, first compound 0.316 µM
[22] = second compound 3.16 µM, first compound 1 µM
[23] = second compound 3.16 µM, first compound 3.16 µM
[24] = second compound 3.16 µM, first compound 10 µM
[25] = second compound 10 µM, first compound 0.0316 µM
[26] = second compound 10 µM, first compound 0.1 µM
[27] = second compound 10 µM, first compound 0.316 µM
[28] = second compound 10 µM, first compound 1 µM
[29] = second compound 10 µM, first compound 3.16 µM
[30] = second compound 10 µM, first compound 10 µM
[31] = second compound 0.1 µM, first compound 0.00316 µM
[32] = second compound 0.1 µM, first compound 0.01 µM
[33] = second compound 0.316 µM, first compound 0.00316 µM
[34] = second compound 0.316 µM, first compound 0.01 µM
[35] = second compound 1 µM, first compound 0.00316 µM
[36] = second compound 1 µM, first compound 0.01 µM
[37] = second compound 3.16 µM, first compound 0.00316 µM
[38] = second compound 3.16 µM, first compound 0.01 µM
[39] = second compound 10 µM, first compound 0.00316 µM
[40] = second compound 10 µM, first compound 0.01 µM

Row | Structure (SMILES) | IC50 (second compound 0.1 µM) [nM] | IC50 (second compound 0.316 µM) [nM] | IC50 (second compound 1 µM) [nM] | IC50 (second compound 3.16 µM) [nM] | IC50 (second compound 10 µM) [nM] | viability, T/C [1] [%] | viability, T/C [2] [%] | viability, T/C [3] [%] | viability, T/C [4] [%] | viability, T/C [7] [%] | viability, T/C [8] [%] | viability, T/C [9] [%] | viability, T/C [10] [%] | viability, T/C [13] [%] | viability, T/C [14] [%] | viability, T/C [15] [%] | viability, T/C [19] [%] | viability, T/C [20] [%] | viability, T/C [25] [%] | viability, T/C [26] [%] | other results
1 | CC(C)c1c(-c2ccccc2)nc2c(C#N)c[nH]n2c1=O + CC(CO)NC(=O)c1cc(-c2ccc(Cl)cc2)nn(-c2cnn(C)c2)c1=O | > 10000 | > 10000 | > 10000 | > 10000 | > 10000 | 98 | 95.9 | 104 | 106 | 95 | 101 | 93.2 | 95.1 | 99.9 | 99.1 | 105 | 100 | 96.5 | 118 | 105 | viability, T/C [5]: 93.7%; viability, T/C [6]: 104%; viability, T/C [11]: 92.3%; viability, T/C [12]: 90%; viability, T/C [16]: 104%; viability, T/C [17]: 107%; viability, T/C [18]: 96.2%; viability, T/C [21]: 97.9%; viability, T/C [22]: 99.5%; viability, T/C [23]: 106%; viability, T/C [24]: 101%; viability, T/C [27]: 105%; viability, T/C [28]: 108%; viability, T/C [29]: 103%; viability, T/C [30]: 125%
2 | COc1ccc([C@@H](O)c2cc(-c3ncnc4cc(N5CCOCC5)ccc34)c(F)cc2Cl)nn1 + CC(CO)NC(=O)c1cc(-c2ccc(Cl)cc2)nn(-c2cnn(C)c2)c1=O | > 10000 | > 10000 | > 10000 | > 10000 | > 10000 | 99.5 | 109 | 111 | 115 | 102 | 107 | 118 | 106 | 110 | 114 | 110 | 102 | 112 | 117 | 122 | viability, T/C [5]: 117%; viability, T/C [6]: 85.2%; viability, T/C [11]: 108%; viability, T/C [12]: 91.2%; viability, T/C [16]: 113%; viability, T/C [17]: 114%; viability, T/C [18]: 91.6%; viability, T/C [21]: 114%; viability, T/C [22]: 111%; viability, T/C [23]: 107%; viability, T/C [24]: 83.2%; viability, T/C [27]: 115%; viability, T/C [28]: 115%; viability, T/C [29]: 100%; viability, T/C [30]: 78%
3 | CC[C@@]1(O)C(=O)OCc2c1cc1n(c2=O)Cc2cc3c(CN(C)C)c(O)ccc3nc2-1 + Cc1ccccc1N=Nc1ccc(NC(=O)c2ccnn2C)c(C)c1 | 48.5 | 41 | 38.8 | 30.9 | 27 | 68.1 | 19.6 |  |  | 59.8 | 16.6 |  |  | 57.3 | 15.9 |  | 49.1 | 18.7 | 44.6 | 16.7 | viability, T/C (second compound 0.1 µM, first compound 0.000316 µM): 107%; viability, T/C (second compound 0.1 µM, first compound 0.001 µM): 103%; viability, T/C [31]: 104%; viability, T/C [32]: 109%; viability, T/C (second compound 0.316 µM, first compound 0.000316 µM): 101%; viability, T/C (second compound 0.316 µM, first compound 0.001 µM): 99.4%; viability, T/C [33]: 107%; viability, T/C [34]: 103%; viability, T/C (second compound 1 µM, first compound 0.000316 µM): 102%; viability, T/C (second compound 1 µM, first compound 0.001 µM): 101%; viability, T/C [35]: 106%; viability, T/C [36]: 103%; viability, T/C (second compound 3.16 µM, first compound 0.000316 µM): 96.4%; viability, T/C (second compound 3.16 µM, first compound 0.001 µM): 101%; viability, T/C [37]: 93.4%; viability, T/C [38]: 92.3%; viability, T/C (second compound 10 µM, first compound 0.000316 µM): 90.7%; viability, T/C (second compound 10 µM, first compound 0.001 µM): 89.5%; viability, T/C [39]: 86.4%; viability, T/C [40]: 83.6%
4 | COc1cc(C2c3cc4c(cc3C(OC3OC5COC(C)OC5C(O)C3O)C3COC(=O)C23)OCO4)cc(OC)c1O (stereo not given) + Cc1ccccc1N=Nc1ccc(NC(=O)c2ccnn2C)c(C)c1 | 937 | 873 | 1060 | 885 | 723 | 110 | 110 | 85.2 | 46.2 | 110 | 105 | 86.2 | 41.6 | 107 | 107 | 81.4 | 103 | 82.9 | 96.8 | 91.7 | viability, T/C [5]: 24.2%; viability, T/C [6]: 9.45%; viability, T/C [11]: 27.5%; viability, T/C [12]: 10.3%; viability, T/C [16]: 50.4%; viability, T/C [17]: 26.8%; viability, T/C [18]: 10.3%; viability, T/C [21]: 78%; viability, T/C [22]: 46.4%; viability, T/C [23]: 21.1%; viability, T/C [24]: 7.16%; viability, T/C [27]: 68.4%; viability, T/C [28]: 42.6%; viability, T/C [29]: 19.4%; viability, T/C [30]: 7%
5 | COc1cccc2c1C(=O)c1c(O)c3c(c(O)c1C2=O)CC(O)(C(=O)CO)CC3OC1CC(N)C(O)C(C)O1 (stereo not given) + Cc1ccccc1N=Nc1ccc(NC(=O)c2ccnn2C)c(C)c1 | 126 | 122 | 132 | 119 | 76.5 | 73.8 | 56.6 | 24.7 | 9.36 | 69.3 | 55.7 | 24.7 | 10.1 | 77.4 | 57.4 | 26.7 | 66.6 | 55.2 | 57.6 | 48.8 | viability, T/C [5]: 1.43%; viability, T/C [6]: 1.74%; viability, T/C [11]: 2.44%; viability, T/C [12]: 3.3%; viability, T/C [16]: 9.75%; viability, T/C [17]: 1.55%; viability, T/C [18]: 1.78%; viability, T/C [21]: 24.5%; viability, T/C [22]: 9.36%; viability, T/C [23]: 1.41%; viability, T/C [24]: 1.09%; viability, T/C [27]: 22.4%; viability, T/C [28]: 9.51%; viability, T/C [29]: 1.98%; viability, T/C [30]: 1.15%
6 | Nc1ncn(C2CC(O)C(CO)O2)c(=O)n1 (stereo not given) + Cc1ccccc1N=Nc1ccc(NC(=O)c2ccnn2C)c(C)c1 | > 1000 | > 1000 | > 1000 | > 1000 | > 1000 | 105 | 101 | 98.3 | 90.6 | 106 | 99.5 | 96.6 | 92.9 | 105 | 104 | 95.2 | 100 | 94.9 | 91.3 | 87.1 | viability, T/C [31]: 103%; viability, T/C [32]: 114%; viability, T/C [33]: 105%; viability, T/C [34]: 104%; viability, T/C [35]: 106%; viability, T/C [36]: 112%; viability, T/C [16]: 94.5%; viability, T/C [37]: 104%; viability, T/C [38]: 102%; viability, T/C [21]: 92.8%; viability, T/C [22]: 89.7%; viability, T/C [39]: 93.4%; viability, T/C [40]: 95.3%; viability, T/C [27]: 83.2%; viability, T/C [28]: 77.2%
